Test results as given in publication PMC7563019 (Acta Pharmaceutica Sinica. B, 2020).

Molecular target: LSD1 (Homo sapiens, UniProt O60341)
Assay: LSD1 enzymatic assay
Assay type: biochemical
Details: for inhibition at 1 µM: read-out: Inhibition rate (%) at 1 μmol/L against LSD1

| SMILES | IC50 [nM] | fold stronger LSD1 inhibitory activity than compound 14a | inhibition at 1 µM [%] |
| --- | --- | --- | --- |
| N#Cc1c(Nc2cccc(Cl)c2)nc(SCc2cn(Cc3ccccc3Cl)nn2)nc1-c1ccccc1 [Compound 10c] | 6310 ± 719 |  |  |
| C#CCSc1nc(Nc2ccc(C)cc2)c(C#N)c(-c2ccccc2)n1 [Compound 7f] | > 64000 |  |  |
| N#Cc1c(Nc2ccc(Cl)cc2)nc(SCc2cn(Cc3ccccc3Cl)nn2)nc1-c1ccccc1 [Compound 10b] | 628 ± 27 |  |  |
| Cc1ccc(Nc2nc(SCC(=O)NC(=O)Nc3ccccn3)nc(-c3ccc(C(C)C)cc3)c2C#N)cc1 [Compound 16b] | > 125000 |  |  |
| Cc1ccc(Nc2nc(SCc3cn(CC(=O)NC(=O)Nc4ccccn4)nn3)nc(-c3ccc(Cl)cc3)c2C#N)cc1 [Compound 14c] | 531 ± 2 | about 3.5 fold | 91.4 |
| Cc1ccc(Nc2nc(SCc3cn(CC(=O)NC(=O)Nc4ccccn4)nn3)nc(-c3ccc(Br)cc3)c2C#N)cc1 [Compound 14d] | 3820 ± 582 |  | 46.3 |
| Cc1ccc(-c2nc(SCc3cn(CC(=O)NC(=O)Nc4ccccn4)nn3)nc(Nc3cccc(Cl)c3)c2C#N)cc1 [Compound 14p] | 232 ± 2 |  |  |
